Source: EP2308883A1, “New derivatives of thieno[2,3-b]pyridine and 5,6,7,8 tetrahydrothieno[2,3 b]quinoline in particular useful in the treatment of malaria” (priority 2009, dated 2011)

Experiments:
[1] = target: T1, PfGSK-3 (Plasmodium falciparum, UniProt O77344); experiment: Kinase assay with recombinant (His)6-tagged PfGSK3, GS-1 peptide and [γ-33P] ATP; assay type: biochemical; details: for anti-PfGSK-3 IC50 values: result in words; for IC50: unit only in the introducing sentence b99, not in the table, read-out: IC50 PfGSK-3
T1 construct: His6; made in house; host or cells: Escherichia coli TOP 10
T1 sequence (O77344 1-440): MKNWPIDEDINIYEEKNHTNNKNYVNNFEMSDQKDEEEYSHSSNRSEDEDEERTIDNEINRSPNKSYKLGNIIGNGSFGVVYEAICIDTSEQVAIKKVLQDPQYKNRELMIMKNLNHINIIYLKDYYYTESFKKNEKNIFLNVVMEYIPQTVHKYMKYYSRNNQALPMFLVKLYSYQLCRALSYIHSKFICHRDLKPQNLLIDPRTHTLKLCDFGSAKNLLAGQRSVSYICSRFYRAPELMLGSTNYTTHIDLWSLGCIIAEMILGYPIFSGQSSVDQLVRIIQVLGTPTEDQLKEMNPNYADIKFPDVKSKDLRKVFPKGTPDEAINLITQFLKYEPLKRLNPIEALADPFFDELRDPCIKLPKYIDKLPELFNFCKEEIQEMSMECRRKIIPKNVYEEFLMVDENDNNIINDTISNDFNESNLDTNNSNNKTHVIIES
Procedure: Escherichia coli strain (TOP 10) containing a plasmid encoding PfGSK3 with six histidines (pBAD-Thio-TOPO, Invitrogen) were cultured into 500 ml of LB medium containing 100 µg/ml ampicillin, at 37°C, under shaking (250 rpm) until OD600 of 0.5 was reached. Expression was induced with 0.5 ml of 20% arabinose (0.02% final concentration). The culture was grown at 37°C with shaking for 4 hours. Cells were harvested by centrifugation at 9000 rpm for 10 min. The bacterial pellet was stored frozen at -80°C until further processing. For proteins extraction, pellet was resuspended in 10 ml of lysis buffer (50 mM NaH2PO4 pH 8.0, 300 mM NaCl, 10 mM imidazole) with the addition of protease inhibitors (complete EDTA-free, Roche) and lysozyme ([…] final). Cells were disrupted by sonication and the cell lysate was centrifuged at 24000 rpm for 30 min at 4°C. The recombinant PfGSK3 protein was purified by Immobilized Metal Affinity Chromatography according to a batch procedure on 1 ml of Nickel affinity resin (Ni-NTA agarose beads, Qiagen). Beads were washed four times with 10 ml of wash buffer (50 mM NaH2PO4 pH 8.0, 300 mM NaCl, 30 mM imidazole). Protein was eluted with one volume of elution buffer (50 mM NaH2PO4 pH 8.0, 300 mM NaCl, 250 mM imidazole, 10% glycerol).
(§1) Both porcine GSK3 and PfGSK3 were assayed with 40 µM GS-1 peptide, a specific GSK-3 substrate, ([…]pEDEEE, synthesized by the Peptide Synthesis Unit, Institute of Biomolecular Sciences, University of Southampton, U.K.), in buffer A (25 mM Tris-HCl pH 7.5, 10 mM MgC12, 1 mM EGTA, 1 mM DTT, 50 µg heparin/ml, 0.5 mg BSA/ml) in the presence of 15 µM [γ-^33P] ATP (3000 Ci/mmol; 1 mCi/ml) in a final volume of 30 µl. After 30 min. incubation at 30°C, 25 µl aliquots of supernatant were spotted onto 2.5 x 3 cm pieces of Whatman P81 phosphocellulose paper, and, 20 sec. later, the filters were washed five times (for at least 5 min. each time) in 1 % phosphoric acid. The wet filters were counted in the presence of 1 ml ACS (Amersham) scintillation fluid. The kinase activity was expressed in pmoles phosphate incorporated in GS-1 or in percentage of the maximal activity.

[2] = target: Mammalian GSK-3 (GSK-3α/β); experiment: Kinase assay with native porcine GSK3 purified from porcine brain, GS-1 peptide and [γ-33P] ATP; assay type: biochemical; details: for anti-mammalian GSK-3 IC50 values: result in words; for IC50: -(10) taken as no inhibition at 10, read-out: IC50 Mammalian GSK-3
Procedure: Porcine GSK3 (GSK-3α/β) was purified from porcine brain by affinity chromatography on immobilized axin according to the protocol described in Primot et al (Protein Expression and Purification 20, 394-404, 2000).
as §1

Structure (SMILES)	anti-PfGSK-3 IC50 values [1]	anti-mammalian GSK-3 IC50 values [2]	IC50 [1] [µM]	IC50 [2] [µM]
COc1ccccc1-c1c(C#N)c(N)nc2sc(C(=O)c3cccc(Cl)c3)c(N)c12 [Compound 7, 3,6-diamino-2-(3-chlorobenzoyl)-4-(2-methoxyphenyl)thieno[2,3-b]pyridine-5-carbonitrile]	particularly good	do not demonstrate good	–	–
COc1ccc(C(=O)c2sc3nc(N)c(C#N)c(-c4ccccc4I)c3c2N)cc1 [Compound 11, 3,6-diamino-4-(2-iodophenyl)-2-(4-methoxybenzoyl)thieno[2,3-b]pyridine-5-carbonitrile]	particularly good	do not demonstrate good	1.7	> 10
Cc1ccc(C(=O)c2sc3nc(N)c(C#N)c(-c4ccccc4I)c3c2N)cc1 [Compound 12, 3,6-diamino-4-(2-iodophenyl)-2-(4-methylbenzoyl)thieno[2,3-b]pyridine-5-carbonitrile]	particularly good	do not demonstrate good	–	–
N#Cc1c(N)nc2sc(C(=O)c3ccccc3)c(N)c2c1-c1ccccc1Br [Compound 18, 3,6-diamino-2-benzoyl-4-(2-bromophenyl)thieno[2,3-b]pyridine-5-carbonitrile]	particularly good	do not demonstrate good	–	–
N#Cc1c(N)nc2sc(C(=O)c3cccc(C(F)(F)F)c3)c(N)c2c1-c1ccccc1Cl [Compound 25, 3,6-diamino-4-(2-chlorophenyl)-2-[3-(trifluoromethyl)benzoyl]thieno[2,3-b]pyridine-5-carbonitrile]	particularly good	do not demonstrate good	–	–
N#Cc1c(N)nc2sc(C(=O)c3cccc(Cl)c3)c(N)c2c1-c1c(Cl)cccc1Cl [Compound 30, 3,6-diamino-2-(3-chlorobenzoyl)-4-(2,6-dichlorophenyl)thieno[2,3-b]pyridine-5-carbonitrile]	particularly good	do not demonstrate good	–	–

Second part, the molecule after the results:

anti-PfGSK-3 IC50 values [1]	anti-mammalian GSK-3 IC50 values [2]	IC50 [1] [µM]	IC50 [2] [µM]	Structure (SMILES)
particularly good	do not demonstrate good	3.8	> 10	N#Cc1c(N)nc2sc(C(=O)c3ccc(Cl)c(Cl)c3)c(N)c2c1-c1ccccc1Br [Compound 21, 3,6-diamino-4-(2-bromophenyl)-2-(3,4-dichlorobenzoyl)thieno[2,3-b]pyridine-5-carbonitrile]
particularly good	do not demonstrate good	–	–	N#Cc1c(N)nc2sc(C(=O)c3ccc(Cl)c(Cl)c3)c(N)c2c1-c1ccccc1Cl [Compound 23, 3,6-diamino-4-(2-chlorophenyl)-2-(3,4-dichlorobenzoyl)thieno[2,3-b]pyridine-5-carbonitrile]
particularly good	do not demonstrate good	–	–	COc1cccc(C(=O)c2sc3nc(N)c(C#N)c(-c4ccccc4Cl)c3c2N)c1 [Compound 24, 3,6-diamino-4-(2-chlorophenyl)-2-(3-methoxybenzoyl)thieno[2,3-b]pyridine-5-carbonitrile]
particularly good	do not demonstrate good	–	–	N#Cc1c(N)nc2sc(C(=O)c3cccc(Br)c3)c(N)c2c1-c1ccccc1Cl [Compound 27, 3,6-diamino-2-(3-bromobenzoyl)-4-(2-chlorophenyl)thieno[2,3-b]pyridine-5-carbonitrile]
–	–	0.51	2	Cc1ccccc1-c1c(C#N)c(N)nc2sc(C#N)c(N)c12 [Compound 40, 3,6-diamino-4-(2-methylphenyl)thieno[2,3-b]pyridine-2,5-dicarbonitrile]
–	–	0.18	2.3	N#Cc1sc2nc(N)c(C#N)c(-c3cccs3)c2c1N [Compound 41, 3,6-diamino-4-(2-thienyl)thieno[2,3-b]pyridine-2,5-dicarbonitrile]
–	–	0.13	0.06	N#Cc1c(N)nc2sc3c(=S)[nH]cnc3c2c1-c1ccccc1Cl [Compound 47, 7-amino-9-(2-chlorophenyl)-4-thioxo-3,4-dihydropyrido[3',2':4,5]thieno[3,2-d]pyrimidine-8-carbonitrile]
